# Laboratory results reported in US10004683B2, “Antimicrobial formulations” (Common Pharma, Inc., priority 2015, dated 2018).
# System: New Zealand White Rabbits
# Experiment: Dermal irritation test, ISO 10993-10:2010
# Settings: rabbits inspected at 1, 24, 48 and 72 hours; scale 0 to 0.4 Negligible, 0.5 to 1.9 Slight, 2 to 4.9 Moderate, 5 to 8 Severe
# Procedure: The test was performed according to ISO 10993-10:2010. The test sample was 2% Noveon and 2% boric acid in water. A placebo was also tested which was only 2% Noveon in water. All testing was under GLP conditions. A negative control was used which was 0.9% Sodium Chloride for Injection, USP and a positive control was used which was 20% W/V of sodium dodecyl sulfate (SDS) in water.
# The test animals were inspected at times 1, 24, 48 and 72 hours.
smiles,measurement,value
"CCCCCCCCCCCCOS(=O)(=O)[O-].[Na+] [positive control, sodium dodecyl sulfate]",dermal irritation observational rankings,2-4
